Literature values, collected in patent EP4620459A1, “METFORMIN HYDROCHLORIDE ENTERIC-COATED TABLET” (Yayan (Tianjin) Biomedical Technology Center (Limited …, priority 2023, dated 2025).

Details: nausea, abdominal pain, abdominal discomfort, etc.

SMILES: CN(C)C(=N)N=C(N)N [metformin]
- incidence of gastrointestinal adverse reactions: 20-30%
